Assay results taken from patent US20030004154A1, “New crystal forms of oxcarbazepine and processes for their preparation” (priority 2001, published 2003).
Read-outs that look alike come from different tables or passages of the source. Values belong to the compound of their own block, whether it stands above or below them.

Experiments:
[1] = system: voltage sensitive sodium channels; settings: in vitro studies; cited from earlier work
[2] = cited from earlier work
[3] = Solid form after heating, analyzed by PXRD; type: physicochemical
Experimental: The present invention also provides for processes that convert one form of oxcarbazepine into another form of oxcarbazepine. Form A may be obtained by heating oxcarbazepine solvate Form E at elevated temperatures between 40° C. and 80° C., preferably 60° C., for a period of 2 hours to 10 hours, preferably 4 hours. One skilled in the art may appreciate that Form E may transform to Form A under different conditions, and that the optimal conditions may be discovered with routine experimentation. The present invention also provides a process for transforming Form B to Form A. At about ambient temperature, Form B transforms to Form C. One skilled in the art would appreciate that such a transition may also occur at temperatures above and below ambient temperature, and that by routine experimentation the boundary of the temperature range may be determined. At higher temperatures, between 60° C. and 120° C., preferably 60° C., a transformation from form B to form A occurs after a few hours, as determined by the temperature. The temperature at which Form B transforms to Form A rather than Form C may be determined by routine experimentation. One skilled in the art may appreciate that the rate and extent of the transformation varies with the conditions and the amount of time under which the transformation occurs. […] FTIR spectra were recorded using Nicolet Avatar 360 spectrometer. […]

[4] = Solid form after slurry in protic solvent, analyzed by PXRD; type: physicochemical
Experimental: One skilled in the art may appreciate that other protic solvents may be used and the optimal conditions may be determined through routine experimentation. The characterization of crystalline phases were performed using Phillips PW 1710 Diffractometer. Thermograviometric analysis (TGA) was produced using Mettler TG50 equipped with Mettler TC11 TA processor. Differential Scanning calorimetry (DSC) was performed using Mettler DSC 30 apparatus. FTIR spectra were recorded using Nicolet Avatar 360 spectrometer. Oxcarbazepine Form B was suspended in ethanol for 24 hours. The product was analyzed by PXRD and determined to be Form A. Oxcarbazepine Form C was suspended in ethanol for 24 hours. The product was analyzed by PXRD and determined to be Form A. Oxcarbazepine Form D was suspended in water for 24 hours. The product is analyzed by PXRD and is determined to be Form A.

[5] = Solid form after storage at ambient temperature, analyzed by PXRD; type: physicochemical; settings: stored at ambient temperature (about 20 to 30° C.; gradual, may occur over several months)
Experimental: The present invention also provides a process for transforming Form B to Form C. […] The transformation is gradual and prolonged, and may occur over several months. One skilled in the art may appreciate that the optimal conditions and time for transformation may be discovered through routine experimentation. The characterization of crystalline phases were performed using Phillips PW 1710 Diffractometer. Thermograviometric analysis (TGA) was produced using Mettler TG50 equipped with Mettler TC11 TA processor. Differential Scanning calorimetry (DSC) was performed using Mettler DSC 30 apparatus. FTIR spectra were recorded using Nicolet Avatar 360 spectrometer. Oxcarbazepine Form B was stored at an ambient temperature. The resulting material was analyzed by PXRD and found to be Form C.

SMILES: NC(=O)N1c2ccccc2CC(O)c2ccccc21 (centres unmarked) [10-hydroxy metabolite of oxcarbazepine]
effect on voltage sensitive sodium channels [1]: blocks voltage sensitive sodium channels

SMILES: NC(=O)N1c2ccccc2CC(=O)c2ccccc21 [Oxcarbazepine Form A, 10-oxo-10,11-dihydro-5H-dibenz[b, f]azepine-5-carboxamide]
solubility ([2]; solvents ethanol, ether and water): practically insoluble
solubility ([2]; solvents such as chloroform, dichloromethane, acetone and methanol): slightly soluble

SMILES: NC(=O)N1c2ccccc2CC(=O)c2ccccc21 [Oxcarbazepine Form B, 10-oxo-10,11-dihydro-5H-dibenz[b, f]azepine-5-carboxamide]
crystal form found by PXRD after heating (solid-state stability) ([3]; heated to about 60° C., maintained for five hours): Form A
crystal form found by PXRD after suspension in solvent (solid-state stability) ([4]; suspended in ethanol for 24 hours): Form A
crystal form found by PXRD after storage (solid-state stability) [5]: Form C

Other lines, results leading:

crystal form found by PXRD after suspension in solvent (solid-state stability) ([4]; suspended in water for 24 hours): Form A
SMILES: NC(=O)N1c2ccccc2CC(=O)c2ccccc21 [Oxcarbazepine Form D, 10-oxo-10,11-dihydro-5H-dibenz[b, f]azepine-5-carboxamide]

crystal form found by PXRD after heating (solid-state stability) ([3]; heated to 60° C., maintained for 4 hours): Form A
SMILES: NC(=O)N1c2ccccc2CC(=O)c2ccccc21 [Oxcarbazepine solvate Form E, 10-oxo-10,11-dihydro-5H-dibenz[b, f]azepine-5-carboxamide]
